Consider two compounds from US9005677B2, “Autophagy enhancer for treatment of neurodegenerative diseases” (Macau University of Science and Technology, priority 2013, dated 2015).

The subject of this assay is GFP-LC3 puncta formation in PC12 cells. Kind of assay: Quantification of autophagy GFP-LC3 puncta. The settings on record: fluorescent microscopy. Format: cell-based, rat. The procedure:
Quantification of autophagy GFP-LC3 Puncta. GFP-LC3 puncta formation was quantified as described previously. In brief, cells grown on coverslips in a 6-well plate were fixed in 4% paraformaldehyde for 20 minutes at room temperature and then rinsed with PBS. Slides were mounted with FluorSave™ mounting media (Calbiochem, San Diego, Calif.) and examined by fluorescence microscopy. The number of GFP-positive cells with GFP-LC3 puncta formation was examined under the Nikon ECLIPSE 80i microscope. Representative images were captured with CCD digital camera Spot RT3™ (Diagnostic Instruments, Inc., Melville, N.Y.). To quantify autophagy, the percentage of cells with punctate GFP-LC3 fluorescence was calculated by counting the number of the cells with punctate GFP-LC3 fluorescence in GFP-positive cells. A minimum of 150 cells from 3 randomly selected fields was scored.

Consider `CC1(C)CCC2(C(=O)O)C(O)CC3(C)C(=CCC4C5(C)CC(O)C(O)C(C)(CO)C5CCC43C)C2C1` (centres unmarked) [polygalacic acid], for which the GFP-LC3 puncta formation result is on record as “no autophagy activity”.

For the compound `CC1(C)CC[C@]2(C(=O)O)CCC3=C([C@@H](CCl)C[C@@H]4[C@@]5(C)C[C@H](O)[C@H](O)[C@@](C)(C(=O)O)[C@@H]5CC[C@@]34C)[C@@H]2C1` [senegenin], the GFP-LC3 puncta formation result was “no autophagy activity”.
